Activity calls are given as the source filed them. No cut-off for these calls is given here.
Experiments:
[1] = biological target: Bromodomain-containing protein 4 (Homo sapiens, UniProt O60885); test: Inhibition of BRD4 (unknown origin) at 1 uM relative to control
MDA-MB-468 [2] = test: Antiproliferative activity against human MDA-MB-468 cells assessed as reduction in cell viability incubated for 72 hrs by MTT assay; format: functional, cell-based; settings: MDA-MB-468, 72 h
MDA-MB-231 [3] = test: Antiproliferative activity against human MDA-MB-231 cells assessed as reduction in cell viability incubated for 72 hrs by MTT assay; format: functional, cell-based; settings: MDA-MB-231, 72 h
[4] = biological target: Poly [ADP-ribose] polymerase 1 (Homo sapiens, UniProt P09874); test: Inhibition of PARP1 (unknown origin) at 1 uM relative to control
Chain of Poly [ADP-ribose] polymerase 1 (P09874 whole entry): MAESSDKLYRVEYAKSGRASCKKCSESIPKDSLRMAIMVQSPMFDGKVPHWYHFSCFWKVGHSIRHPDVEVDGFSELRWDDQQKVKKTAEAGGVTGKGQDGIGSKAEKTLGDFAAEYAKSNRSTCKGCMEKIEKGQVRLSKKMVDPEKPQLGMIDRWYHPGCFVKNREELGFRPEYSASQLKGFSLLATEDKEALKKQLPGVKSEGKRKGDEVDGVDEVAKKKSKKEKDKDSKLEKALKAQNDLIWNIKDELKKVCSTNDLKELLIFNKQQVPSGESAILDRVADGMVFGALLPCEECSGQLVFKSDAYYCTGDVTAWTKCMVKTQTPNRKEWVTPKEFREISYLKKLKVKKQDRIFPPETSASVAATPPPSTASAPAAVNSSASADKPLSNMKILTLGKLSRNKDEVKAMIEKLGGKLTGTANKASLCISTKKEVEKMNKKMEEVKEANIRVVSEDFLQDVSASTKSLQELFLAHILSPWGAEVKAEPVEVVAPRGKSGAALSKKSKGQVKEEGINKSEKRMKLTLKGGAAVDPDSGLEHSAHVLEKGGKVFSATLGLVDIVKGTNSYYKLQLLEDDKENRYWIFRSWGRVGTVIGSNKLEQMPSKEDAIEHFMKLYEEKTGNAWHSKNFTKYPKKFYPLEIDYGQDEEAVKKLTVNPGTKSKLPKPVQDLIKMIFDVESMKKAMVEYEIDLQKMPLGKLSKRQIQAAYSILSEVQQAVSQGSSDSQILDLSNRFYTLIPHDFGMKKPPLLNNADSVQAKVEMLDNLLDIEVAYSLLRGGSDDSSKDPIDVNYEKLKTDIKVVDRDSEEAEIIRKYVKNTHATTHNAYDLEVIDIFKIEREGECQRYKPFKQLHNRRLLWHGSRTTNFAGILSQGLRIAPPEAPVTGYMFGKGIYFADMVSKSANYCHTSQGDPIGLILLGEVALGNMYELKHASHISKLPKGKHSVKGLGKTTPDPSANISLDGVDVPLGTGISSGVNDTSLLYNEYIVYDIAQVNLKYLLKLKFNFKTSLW

MDA-MB-231 [5] = test: Induction of DNA damage in human MDA-MB-231 cells assessed as increase in tail DNA measured at 3 uM after 3 days by comet assay; format: functional, cell-based; settings: time 3.0 day
MDA-MB-468 [6] = test: Induction of DNA damage in human MDA-MB-468 cells assessed as up-regulation of gammaH2AX expression level at 3 uM by DAPI staining based immunofluorescence assay; format: functional, cell-based

| inhibition [1] [%] | IC50 (MDA-MB-468 [2]) [µM] | IC50 (MDA-MB-231 [3]) [µM] | inhibition [4] [%] | Compound | Activity (MDA-MB-231 [5]) | Activity (MDA-MB-468 [6]) |
| --- | --- | --- | --- | --- | --- | --- |
| 47.5 | 18.6 | 22.1 | 72 | COc1cc(OC)c2nc(-c3cc(Cc4n[nH]c(=O)c5ccccc45)ccc3F)[nH]c(=O)c2c1 |  |  |
| 54.5 | 12.3 | 15 | 78 | O=c1[nH]c(-c2cc(F)cc(Cc3n[nH]c(=O)c4ccccc34)c2)nc2ccc(Cl)cc12 |  |  |
| 45.5 | 16 | 19.1 | 57.4 | COc1ccc2nc(-c3ccc(Cc4n[nH]c(=O)c5ccccc45)cc3)[nH]c(=O)c2c1 |  |  |
| 49.3 | 17 | 17.1 | 52.3 | O=c1[nH]c(-c2ccc(Cc3n[nH]c(=O)c4ccccc34)cc2)nc2ccc(Cl)cc12 |  |  |
| 45.5 | 14.2 | 17.7 | 84.5 | O=c1[nH]c(-c2cc(F)cc(Cc3n[nH]c(=O)c4ccccc34)c2)nc2ccccc12 |  |  |
| 63.4 | 7.49 | 9.87 | 82.8 | COc1cc(OC)c2c(=O)[nH]c(-c3cc(F)cc(Cc4n[nH]c(=O)c5ccccc45)c3)nc2c1 |  |  |
| 42.1 | 28.2 | 36 | 46.3 | Cc1cc(-c2nc3ccccc3c(=O)[nH]2)ccc1Cc1n[nH]c(=O)c2ccccc12 |  |  |
| 33 | 25.4 | 25 | 63.8 | O=c1[nH]c(-c2ccc(Cc3n[nH]c(=O)c4ccccc34)cc2)nc2ccccc12 |  |  |
| 47.2 | 16.2 | 21.3 | 82.4 | O=c1[nH]c(-c2cccc(Cc3n[nH]c(=O)c4ccccc34)c2)nc2ccccc12 |  |  |
| 64.8 | 6.3 | 9.15 | 74.7 | O=c1[nH]c(-c2cccc(Cc3n[nH]c(=O)c4ccccc34)c2)nc2ccc(F)cc12 |  |  |
| 53.4 | 21.2 | 22 | 38.5 | O=c1[nH]nc(Cc2ccc(-c3nc4cccc(Cl)c4c(=O)[nH]3)cc2F)c2ccccc12 |  |  |
| 58.2 | 14.1 | 17 | 59.2 | COc1cc(OC)c2c(=O)[nH]c(-c3ccc(Cc4n[nH]c(=O)c5ccccc45)cc3)nc2c1 |  |  |
| 47.8 | 15.4 | 15.4 | 76.4 | Cc1cccc2nc(-c3cc(F)cc(Cc4n[nH]c(=O)c5ccccc45)c3)[nH]c(=O)c12 |  |  |
| 61.2 | 5.43 | 8.71 | 78.4 | COc1ccc2nc(-c3cccc(Cc4n[nH]c(=O)c5ccccc45)c3)[nH]c(=O)c2c1 |  |  |
| 43.7 | 19.1 | 18.6 | 68.5 | O=c1[nH]c(-c2cc(Cc3n[nH]c(=O)c4ccccc34)ccc2F)nc2ccc(F)cc12 |  |  |
| 41 | 24.2 | 22.8 | 70.7 | COc1ccc2nc(-c3cc(Cc4n[nH]c(=O)c5ccccc45)ccc3F)[nH]c(=O)c2c1 |  |  |
| 51.2 | 12.1 | 13.2 | 77.5 | O=c1[nH]c(-c2cc(F)cc(Cc3n[nH]c(=O)c4ccccc34)c2)nc2ccc(F)cc12 |  |  |
|  |  |  |  | O=C(c1cc(Cc2n[nH]c(=O)c3ccccc23)ccc1F)N1CCN(C(=O)C2CC2)CC1 | Active | Active |
| 31.6 | 29.2 | 31.7 | 59.6 | O=c1[nH]c(-c2cc(Cc3n[nH]c(=O)c4ccccc34)ccc2F)nc2ccccc12 |  |  |
| 63.5 | 25.5 | 28.3 | 35.9 | COc1cc(OC)c2c(=O)[nH]c(-c3ccc(Cc4n[nH]c(=O)c5ccccc45)c(F)c3)nc2c1 |  |  |
| 39.5 | 19.5 | 24.1 | 76.8 | O=c1[nH]c(-c2cc(Cc3n[nH]c(=O)c4ccccc34)ccc2F)nc2ccc(Br)cc12 |  |  |
| 52.8 | 14.7 | 13.4 | 75.1 | O=c1[nH]nc(Cc2cc(F)cc(-c3nc4cccc(Cl)c4c(=O)[nH]3)c2)c2ccccc12 |  |  |
| 31.7 | 24.1 | 28.9 | 52.6 | Cc1cccc2nc(-c3ccc(Cc4n[nH]c(=O)c5ccccc45)cc3)[nH]c(=O)c12 |  |  |
| 35.1 | 29.7 | 31.5 | 47.2 | O=c1[nH]c(-c2ccc(Cc3n[nH]c(=O)c4ccccc34)c(F)c2)nc2ccccc12 |  |  |

| inhibition [1] [%] | IC50 (MDA-MB-468 [2]) [µM] | IC50 (MDA-MB-231 [3]) [µM] | inhibition [4] [%] | Compound | Activity (MDA-MB-231 [5]) | Activity (MDA-MB-468 [6]) |
| --- | --- | --- | --- | --- | --- | --- |
| 43.3 | 34.7 | 35.1 | 33.9 | COc1cc(-c2nc3cccc(Cl)c3c(=O)[nH]2)ccc1Cc1n[nH]c(=O)c2ccccc12 |  |  |
| 72.2 | 12.8 | 15.5 | 43.2 | COc1cc(OC)c2c(=O)[nH]c(-c3cccc(Cc4n[nH]c(=O)c5ccc(Cl)cc45)c3)nc2c1 |  |  |
| 53.3 | 17.2 | 22 | 38.2 | O=c1[nH]c(-c2ccc(Cc3n[nH]c(=O)c4ccccc34)c(F)c2)nc2ccc(F)cc12 |  |  |
| 31.3 | > 40 | > 40 | 46.5 | COc1cc(-c2nc3ccccc3c(=O)[nH]2)ccc1Cc1n[nH]c(=O)c2ccccc12 |  |  |
| 64.8 | 7.3 | 11 | 75.3 | O=c1[nH]nc(Cc2cccc(-c3nc4cccc(Cl)c4c(=O)[nH]3)c2)c2ccccc12 |  |  |
| 51 | 25.3 | 27.7 | 35.3 | COc1cc(OC)c2c(=O)[nH]c(-c3ccc(Cc4n[nH]c(=O)c5ccccc45)c(OC)c3)nc2c1 |  |  |
| 36.8 | 29.6 | > 40 | 47.6 | Cc1cc(-c2nc3cccc(C)c3c(=O)[nH]2)ccc1Cc1n[nH]c(=O)c2ccccc12 |  |  |
| 47.2 | 14 | 16.5 | 58.2 | O=c1[nH]c(-c2ccc(Cc3n[nH]c(=O)c4ccccc34)cc2)nc2ccc(F)cc12 |  |  |
| 34.4 | > 40 | > 40 | 37.2 | COc1cc(-c2nc3cccc(C)c3c(=O)[nH]2)ccc1Cc1n[nH]c(=O)c2ccccc12 |  |  |
| 49.6 | 15.4 | 24.6 | 76.3 | Cc1cccc2nc(-c3cccc(Cc4n[nH]c(=O)c5ccccc45)c3)[nH]c(=O)c12 |  |  |
| 40.9 | 21.6 | 23.3 | 72.8 | O=c1[nH]nc(Cc2ccc(F)c(-c3nc4cccc(Cl)c4c(=O)[nH]3)c2)c2ccccc12 |  |  |
| 54.2 | 20.2 | 25.1 | 49.5 | Cc1cc(-c2nc3ccc(F)cc3c(=O)[nH]2)ccc1Cc1n[nH]c(=O)c2ccccc12 |  |  |
| 42.6 | 20.8 | 21.1 | 68.6 | O=c1[nH]c(-c2cc(Cc3n[nH]c(=O)c4ccccc34)ccc2F)nc2ccc(Cl)cc12 |  |  |
| 51.3 | 12.3 | 15.3 | 72.1 | COc1ccc2nc(-c3cc(F)cc(Cc4n[nH]c(=O)c5ccccc45)c3)[nH]c(=O)c2c1 |  |  |
| 38.2 | > 40 | > 40 | 34.8 | Cc1cccc2nc(-c3ccc(Cc4n[nH]c(=O)c5ccccc45)c(F)c3)[nH]c(=O)c12 |  |  |
| 41.5 | 31.4 | 26 | 36.1 | COc1cc(-c2nc3ccc(F)cc3c(=O)[nH]2)ccc1Cc1n[nH]c(=O)c2ccccc12 |  |  |
| 48.9 | 15.4 | 21 | 58.5 | O=c1[nH]nc(Cc2ccc(-c3nc4cccc(Cl)c4c(=O)[nH]3)cc2)c2ccccc12 |  |  |
| 45.2 | 28.3 | 33.6 | 36.7 | COc1ccc2nc(-c3ccc(Cc4n[nH]c(=O)c5ccccc45)c(OC)c3)[nH]c(=O)c2c1 |  |  |
| 52.3 | 24.5 | 28.2 | 43.8 | Cc1cc(-c2nc3ccc(Br)cc3c(=O)[nH]2)ccc1Cc1n[nH]c(=O)c2ccccc12 |  |  |
| 46 | 18.8 | 24.5 | 53.3 | O=c1[nH]c(-c2ccc(Cc3n[nH]c(=O)c4ccccc34)cc2)nc2ccc(Br)cc12 |  |  |
| 51.5 | 19.4 | 25.2 | 39.4 | COc1ccc2nc(-c3ccc(Cc4n[nH]c(=O)c5ccccc45)c(F)c3)[nH]c(=O)c2c1 |  |  |
| 31.2 | 35.6 | 38.2 | 61 | Cc1cccc2c(=O)[nH]c(-c3cc(Cc4n[nH]c(=O)c5ccccc45)ccc3F)nc12 |  |  |
| 67.8 | 13 | 17.9 | 55 | COc1cc(OC)c2nc(-c3ccc(Cc4n[nH]c(=O)c5ccccc45)c(C)c3)[nH]c(=O)c2c1 |  |  |
| 45.8 | 35.6 | 30.6 | 37.1 | COc1cc(-c2nc3ccc(Cl)cc3c(=O)[nH]2)ccc1Cc1n[nH]c(=O)c2ccccc12 |  |  |

Source: ChEMBL document CHEMBL5154882, “Discovery of 4-Hydroxyquinazoline Derivatives as Small Molecular BET/PARP1 Inhibitors That Induce Defective Homologous Recombination and Lead to Synthetic Lethality for Triple-Negative Breast Cancer Therapy” (J Med Chem, 2022)
